Measured values as given in patent EP1541559A1, “5-SUBSTITUTED ISOQUINOLINE DERIVATIVE” (Asahi Kasei Pharma Corporation, priority 2002, dated 2004).
pIC50: −log10 of the molar value. Counter-ions that a name gives are not always drawn. Like-named read-outs stand apart in the source and are kept apart here.

Assays:
[1] = system: myosin regulatory light chain; assay: Action on amount of phosphorylated myosin regulatory light chain in the cells (Test Example 1); format: cell-based, human; conditions: neutrophils of healthy volunteers, reaction with test compound at 25°C for 5 minutes, read-out: Inhibition of myosin regulatory light chain phosphorylation (IC50: µM)
Experimental: The neutrophils were washed with PBS(-) and resuspended in Hanks' Balanced Salt Solution (HBSS+, Gibco) to prepare a cell suspension (8 x 10^6/ml). The cell suspension was diluted to 5 x 10^6/ml, introduced into Eppendorf tubes in a volume of 0.4 ml each, then 0.1 ml each of solutions of a test compound at various concentrations were added to the suspension and allowed to react at 25°C for 5 minutes. After the reaction, 0.1 ml of trichloroacetic acid solution was added to each reaction, the reaction mixture was gently shaken and centrifuged at 12,000 rpm (4°C, 5 minutes), and the supernatant was removed. Subsequently, 3 μl of 1 M Tris solution was added to the residue, the mixture was further mixed with 50 μl of extraction buffer (8 M urea, 0.02% 2-mercaptoethanol, 0.002% bromophenol blue) and left stand at room temperature for 1 hour. Then, the reaction mixture was loaded on a spin column (0.45 μm, Millipore) to remove the insoluble solids and a sample buffer for SDS polyacrylamide gel electrophoresis (25 mM, Tris-HCl pH 6.8, 2.5% 2-mercaptoethanol, 2% sodium dodecylsulfate, 5% sucrose, 0.002% bromophenol blue as final concentrations) was added, and 10 μl of each sample was subjected to electrophoresis. […] J. Physiol., 274, […]-[…] (1998)), which specifically recognize the phosphorylated myosin regulatory light chain, and donkey anti-mouse IgG (Chemicon) conjugated with horseradish peroxidase (HRP-labeled). The band of the phosphorylated myosin regulatory light chain was detected on a film by using ECL Plus Kit (Amersham Pharmacia Biotech). This band was subjected to quantification using a densitometer. By using this value, the inhibitory ratio (%) for phosphorylation of the myosin regulatory light chain was calculated by using the following equation.

[2] = system: Neutrophils; assay: Neutrophil migration inhibitory action, Boyden Chamber, FMLP (Test Example 5); format: cell-based, human; conditions: Homo sapiens, Neutrophil, 0.5 h, FMLP (1 µM), migration at 37°C for 30 minutes; read-out: Neutrophil migration inhibition IC50
Experimental: Neutrophils were isolated from 50 to 100 ml of peripheral blood collected from healthy donors by the method described in Test Example 1 to obtain a cell suspension (8 x 10^6/ml). Subsequently, solutions of a test compound at various concentrations were introduced into wells of a 96-well plate in a volume of 125 µl per well, the cell suspension of an equivalent volume was added to it and the plate was preincubated at room temperature for 5 minutes. During the preincubation, FMLP (1 µM, Sigma) solution was added to the lower chamber to set Boyden Chamber, the preincubated cell suspension was added to the upper chamber in a volume of 200 µl per well, and the cells were allowed to migrate at 37°C under 5% carbon dioxide for 30 minutes. The filter after the migration was collected, and the non-migrated cells adhered to the surface that faced the upper chamber were carefully wiped off. Then, the migrated cells on the back surface were stained with DifQuick dye solution (International Reagents), washed with water and dried, and then absorbance was measured at 595 nm. The inhibition ratio against migration (%) of a test compound was calculated by using the following equation: Migration inhibition ratio (%) = (1 -Absorbance of the group with addition of test compound /Absorbance of the group without addition of test compound) x 100 [formula]

[3] = system: ovalbumin-immunized guinea pigs; assay: Respiratory tract constriction suppression action, ovalbumin-induced (Test Example 3); format: in vivo, Hartley guinea pigs; conditions: result in words; test medicament given into hind leg vein after induction with 0.3 mg/kg ovalbumin, measured for 15 minutes
Experimental: Four-week old Hartley guinea pigs (male) were immunized by intraperitoneal administration of ovalbumin (Sigma, Grade V) in amounts of 1 mg for each animal on the day on which the experiment was started, 3 mg for each animal after 2 days, and 10 mg for each animal after 4 days. Twelve to fourteen days after the final immunization, the ovalbumin-immunized guinea pigs were anesthetized by intraperitoneal administration of about 40 mg/kg of pentobarbital (Somnopentyl), and the tracheas were taken out. Subsequently, a cannula (SP-110, Natsume) was inserted into each trachea, and one end of the cannula was connected to an artificial respirator (Model-b83, Harvard). The aeration conditions were set at 6 ml per kilogram and 60 times per 1 minute. Further, a cannula for medicament administration (JMS wing needle 23G 3/4) was inserted into a hind leg vein. Myoblock (Organon Technica) was administered in an amount of 0.5 mg/kg from the cannula inserted into the hind leg vein to stop the spontaneous breathing, and after 2 or 3 minutes, 0.3 mg/kg of ovalbumin was administered to induce constriction of respiratory tract. The increase of airway resistance value 2 minutes after the induction (measurement apparatuses: pressure transducer TR-603T, respiratory amplifier AR-601G, and recorder RTA-3100, Nihon Kohden Corp.) was confirmed to be above 80 cm H2O or higher, and then, a solution of a test medicament was administered from the cannula inserted into the hind leg vein, and the airway resistance value was continuously measured for 15 minutes after the administration to determine the effect.

[4] = system: Japanese white rabbit; assay: Intraocular pressure reducing action (Test Example 4); format: in vivo; conditions: for intraocular pressure reducing activity: result in words
Experimental: A Japanese white rabbit having a body weight of about 2 kg was placed in a positioner and naturalized for one week before the experiment. An ophthalmologic local […] (Benoxil) was administered to the left eye, and then intraocular pressure was measured by using a tonometer (Classic 30, Solan). The initial value of the intraocular pressure was measured, then 50 μl of a test compound (1% aqueous solution) was dropped to the left eye, and after 2 hours, the intraocular pressure was measured. The intraocular pressure reducing action of the test compounds is shown in Table 7 mentioned below as ratios (%) of reduction of intraocular pressure based on the initial value of the intraocular pressure.

[5] = system: thoracic aorta; assay: Vasoconstriction inhibitory action on aorta rings constricted with phenylephrine (Test Example 2); parameters: species or system Rats (Wistar, 11-week old); conditions: result in words; aorta constricted with phenylephrine (1 µM)
From the text: Rats (Wistar, 11-week old) were bleeded to death and laparotomized to take out the thoracic aorta.

[6] = Homo sapiens, Neutrophil, 5 min

Row | SMILES | IC50 [1, 6] [µM] | pIC50 [2] | constriction of respiratory tract (airway resistance value) [3] | IC50 ([1]; hydrochloride) [µM] | inhibition in vivo at 1 % ([4]; Oryctolagus cuniculus, topical, 50 µl of test compound (1% aqueous solution) dropped to the left eye, after 2 hours, read-out: Intraocular pressure reducing action (reduction ratio) (%)) [%] | intraocular pressure reducing activity [4] | vasoconstriction inhibitory action [5] | Intraocular pressure reducing action (reduction ratio) (%) ([4]; 50 µl of test compound (1% aqueous solution) dropped to the left eye, after 2 hours)
1 | Cl.Nc1nccc2c(OCC3CCCNC3)cccc12 (stereo not shown) [Example 11, 3-[(1-Amino-5-isoquinolyl)oxy]methylpiperidine hydrochloride] | 1 to 20 | 5.00 to 6.00 | significantly improved the constriction of respiratory tract | – | – | – | – | –
2 | Brc1cncc2cccc(NC3CCNCC3)c12 [Example 103, 4-(4-Bromo-5-isoquinolyl)aminopiperidine hydrochloride] | ≤ 40 | 5.00 to 6.00 | – | ≤ 20 | 31.3 | – | – | –
3 | CCc1cncc2cccc(NC3CCNCC3)c12.Cl [Example 113, 4-(4-Ethyl-5-isoquinolyl)aminopiperidine hydrochloride] | ≤ 40 | ≥ 4.40 | – | ≤ 20 | – | significant intraocular pressure reducing activity | significant vasoconstriction inhibitory action | –
4 | Cl.Clc1cncc2cccc(NC3CCNCC3)c12 [Example 118, 4-(4-Chloro-5-isoquinolyl)aminopiperidine hydrochloride] | ≤ 40 | – | significantly improved the constriction of respiratory tract | ≤ 20 | – | – | – | –
5 | Cc1cncc2cccc(N[C@H]3CC[C@@H](N)CC3)c12.Cl [Example 120, Cis-N-(4-methyl-5-isoquinolyl)-1,4-cyclohexanediamine hydrochloride] | ≤ 40 | – | – | ≤ 20 | – | significant intraocular pressure reducing activity | significant vasoconstriction inhibitory action | –
6 | Cc1cncc2cccc(N[C@H]3CC[C@H](N)CC3)c12.Cl [Example 121, Trans-N-(4-methyl-5-isoquinolyl)-1,4-cyclohexanediamine hydrochloride] | ≤ 40 | 5.00 to 6.00 | significantly improved the constriction of respiratory tract | ≤ 20 | – | – | significant vasoconstriction inhibitory action | –
7 | CS(=O)(=O)c1ccc(CCCN(CCCN)S(=O)(=O)c2cccc3cnccc23)cc1.Cl [Example 124, N-[(5-Isoquinolyl)sulfonyl]-N-[3-(4-methanesulfonyl)phenylpropyl]-1,3-propylenediamine hydrochloride] | – | – | – | ≤ 20 | – | – | – | 12.5
8 | Cl.N[C@H]1CC[C@H](Oc2cccc3cncc(Br)c23)CC1 [Example 133, Trans-4-[(4-bromo-5-isoquinolyl)oxy]cyclohexylamine hydrochloride] | ≤ 40 | – | significantly improved the constriction of respiratory tract | ≤ 20 | – | significant intraocular pressure reducing activity | – | –
9 | Cl.N#Cc1cncc2cccc(O[C@H]3CC[C@H](N)CC3)c12 [Example 134, Trans-4-[(4-cyano-5-isoquinolyl)oxy]cyclohexylamine hydrochloride] | ≤ 40 | – | – | ≤ 20 | – | significant intraocular pressure reducing activity | significant vasoconstriction inhibitory action | –
10 | Cl.N[C@H]1CC[C@H](Oc2cccc3cnccc23)CC1 [Example 135, Trans-4-[(5-isoquinolyl)oxy]cyclohexylamine hydrochloride] | ≤ 40 | – | – | ≤ 20 | – | significant intraocular pressure reducing activity | – | –
11 | C=Cc1cncc2cccc(O[C@H]3CC[C@H](N)CC3)c12.Cl [Example 136, Trans-4-[(4-vinyl-5-isoquinolyl)oxy]cyclohexylamine hydrochloride] | ≤ 40 | ≥ 4.40 | – | ≤ 20 | – | significant intraocular pressure reducing activity | significant vasoconstriction inhibitory action | –
12 | Cc1cncc2cccc(OC3CCNCC3)c12.Cl [Example 139, 4-[(4-Methyl-5-isoquinolyl)oxy]piperidine hydrochloride] | ≤ 40 | – | – | ≤ 20 | – | significant intraocular pressure reducing activity | significant vasoconstriction inhibitory action | –
13 | Cc1cncc2cccc(O[C@H]3CC[C@H](N)CC3)c12.Cl [Example 140, Trans-4-[(4-methyl-5-isoquinolyl)oxy]cyclohexylamine hydrochloride] | ≤ 40 | – | significantly improved the constriction of respiratory tract | ≤ 20 | – | significant intraocular pressure reducing activity | significant vasoconstriction inhibitory action | –
14 | Cl.OCCN1CCC(Nc2cccc3cnccc23)CC1 [Example 144, 1-(2-Hydroxyethyl)-4-(5-isoquinolyl)aminopiperidine hydrochloride] | ≤ 40 | – | significantly improved the constriction of respiratory tract | – | – | significant intraocular pressure reducing activity | – | –
15 | Cl.OCCCN1CCC(Nc2cccc3cnccc23)CC1 [Example 145, 1-(3-Hydroxypropyl)-4-(5-isoquinolyl)aminopiperidine hydrochloride] | ≤ 40 | ≥ 4.40 | – | ≤ 20 | – | significant intraocular pressure reducing activity | – | –
16 | Cc1cncc2cccc(NC3CCN(CCO)CC3)c12.Cl [Example 146, 1-(2-Hydroxyethyl)-4-(4-methyl-5-isoquinolyl)aminopiperidine hydrochloride] | ≤ 40 | ≥ 4.40 | significantly improved the constriction of respiratory tract | ≤ 20 | – | significant intraocular pressure reducing activity | significant vasoconstriction inhibitory action | –
